Measurements: ChEMBL document CHEMBL5543153, “Discovery of a Potent Dual Son of Sevenless 1 (SOS1) and Epidermal Growth Factor Receptor (EGFR) Inhibitor for the Treatment of Prostate Cancer” (J Med Chem, 2024)
Calls of active or inactive are those of the source. The calls are words filed in the database; no cut-off is given here.

What was measured:
[1] = biological target: T1, Son of sevenless homolog 1 (Homo sapiens) (UniProt Q07889); test: Inhibition of SOS1 in human PC-3 cells assessed as downregulation of ERK phosphorylation at 2.5 uM incubated for 15 mins by Western blotting analysis; type: cell-based
T1 sequence (whole entry): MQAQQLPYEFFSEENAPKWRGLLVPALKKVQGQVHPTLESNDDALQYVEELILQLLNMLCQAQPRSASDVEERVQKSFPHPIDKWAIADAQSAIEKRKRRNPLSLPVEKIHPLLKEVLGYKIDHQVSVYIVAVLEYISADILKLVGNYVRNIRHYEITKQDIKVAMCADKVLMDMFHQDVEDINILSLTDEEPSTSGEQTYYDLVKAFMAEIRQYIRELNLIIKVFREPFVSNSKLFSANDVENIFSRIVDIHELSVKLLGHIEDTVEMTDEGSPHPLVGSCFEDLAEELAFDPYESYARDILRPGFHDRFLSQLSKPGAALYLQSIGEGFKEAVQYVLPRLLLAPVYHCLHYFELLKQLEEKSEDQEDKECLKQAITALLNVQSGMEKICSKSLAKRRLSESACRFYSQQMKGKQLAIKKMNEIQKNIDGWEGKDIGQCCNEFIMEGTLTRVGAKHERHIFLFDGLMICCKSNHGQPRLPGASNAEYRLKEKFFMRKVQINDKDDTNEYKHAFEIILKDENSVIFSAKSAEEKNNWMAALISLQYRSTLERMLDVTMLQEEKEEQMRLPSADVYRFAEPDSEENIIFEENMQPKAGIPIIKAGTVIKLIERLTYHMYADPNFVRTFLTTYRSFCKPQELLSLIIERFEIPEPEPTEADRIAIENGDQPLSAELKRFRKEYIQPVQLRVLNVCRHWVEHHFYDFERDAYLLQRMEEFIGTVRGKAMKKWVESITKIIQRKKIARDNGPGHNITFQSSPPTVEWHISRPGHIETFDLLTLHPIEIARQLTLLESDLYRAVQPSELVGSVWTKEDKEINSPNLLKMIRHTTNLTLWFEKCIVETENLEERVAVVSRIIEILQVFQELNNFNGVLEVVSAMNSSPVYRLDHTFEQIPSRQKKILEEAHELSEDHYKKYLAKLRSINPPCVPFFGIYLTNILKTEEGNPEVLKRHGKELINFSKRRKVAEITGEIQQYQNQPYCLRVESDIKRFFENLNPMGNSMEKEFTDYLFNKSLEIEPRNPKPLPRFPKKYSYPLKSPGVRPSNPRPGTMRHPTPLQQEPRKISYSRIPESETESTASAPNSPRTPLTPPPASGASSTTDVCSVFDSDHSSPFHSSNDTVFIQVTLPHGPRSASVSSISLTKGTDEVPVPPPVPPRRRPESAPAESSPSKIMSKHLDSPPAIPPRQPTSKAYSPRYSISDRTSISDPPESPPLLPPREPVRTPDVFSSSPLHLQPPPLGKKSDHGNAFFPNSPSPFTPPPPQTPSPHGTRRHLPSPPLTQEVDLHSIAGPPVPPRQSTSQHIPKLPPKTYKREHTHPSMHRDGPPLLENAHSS

[2] = tested on: PC-3; test: Antiproliferative activity against human PC-3 cells transfected with EGFR shRNA assessed as inhibition of cell growth incubated for 72 hrs by MTT assay; type: functional, cell-based; conditions: PC-3, 72 h
[3] = Toxicity in BALB/c mouse xenografted with human PC-3 cells assessed as change in blood urea nitrogen level at 20 mg/kg,ip administrated once every 4 days for 24 days by automatic biochemical analyzer; type: organism-based; conditions: in vivo, 576 h, time 24 day
[4] = Toxicity in BALB/c mouse xenografted with human PC-3 cells assessed as liver pathological change at 20 mg/kg,ip administrated once every 4 days for 24 days by hematoxylin and eosin staining based analysis; type: organism-based; conditions: in vivo, 576 h, time 24 day
[5] = Toxicity in BALB/c mouse xenografted with human PC-3 cells assessed as change in ALT level at 5 mg/kg,ip administrated once every 4 days for 24 days by automatic biochemical analyzer; type: organism-based; conditions: in vivo, 576 h, time 24 day
[6] = tested on: PC-3; test: Induction of cell cycle arrest in human PC-3 cells assessed as accumulation of cells at G1 phase at 0.5 uM by PI staining based flow cytometry (reference value: 75.66%); type: functional
[7] = Toxicity in BALB/c mouse xenografted with human PC-3 cells assessed as change in ALT level at 20 mg/kg,ip administrated once every 4 days for 24 days by automatic biochemical analyzer; type: organism-based; conditions: in vivo, 576 h, time 24 day
[8] = tested on: PC-3; test: Induction of apoptosis in human PC-3 cells assessed as viable cells at 12.5 uM by Annexin V-FITC staining based flow cytometry (reference value: 94.9%); type: functional; conditions: read-out: Activity
[9] = tested on: HUVEC; test: Inhibition of cell migration in HUVEC cells assessed as reduction in invasion index at 0.5 to 12.5 uM measured after 48 hrs by crystal violet staining based transwell invasion assay; type: functional; conditions: Homo sapiens, dose 0.5-12.5 µM
[10] = biological target: T1, Son of sevenless homolog 1 (Homo sapiens); test: Inhibition of human recombinant SOS1 at 10 uM relative to control
[11] = tested on: PC-3; test: Induction of apoptosis in human PC-3 cells assessed as necrotic cells at 12.5 uM by Annexin V-FITC staining based flow cytometry (reference value: 0.48%); type: functional
[12] = tested on: PC-3; test: Induction of apoptosis in human PC-3 cells assessed as early apoptotic cells at 12.5 uM by Annexin V-FITC staining based flow cytometry (reference value: 2.64%); type: functional
[13] = tested on: HUVEC; test: Antiangiogenic activity in HUVEC cells assessed as reduction in tube segments at 0.5 to 12.5 uM incubated for 8 hrs by matrigel based microscopic analysis; type: functional, cell-based; conditions: Homo sapiens, dose 0.5-12.5 µM
[14] = tested on: PC-3; test: Antitumor activity against human PC-3 cells xenografted in BALB/c mouse assessed as reduction in number of Ki67-positive cells in tumor tissue at ip administrated once every 4 days for 24 days by DAPI staining based immunohistochemical analysis; type: functional, organism-based; conditions: time 24.0 day
[15] = Toxicity in BALB/c mouse xenografted with human PC-3 cells assessed as heart pathological change at 5 mg/kg,ip administrated once every 4 days for 24 days by hematoxylin and eosin staining based analysis; type: organism-based; conditions: in vivo, 576 h, time 24 day
[16] = tested on: PC-3; test: Induction of cell cycle arrest in human PC-3 cells assessed as accumulation of cells at G2 phase at 2.5 uM by PI staining based flow cytometry (reference value: 7.75%); type: functional
[17] = biological target: Epidermal growth factor receptor (Homo sapiens, UniProt P00533); test: Inhibition of EGFR (unknown origin) using ultra ULight GT peptide as substrate at 10 uM incubated for 2 hrs relative to control
[18] = tested on: HUVEC; test: Antiangiogenic activity in HUVEC cells assessed as reduction of node at 0.5 to 12.5 uM incubated for 8 hrs by matrigel based microscopic analysis; type: functional, cell-based; conditions: Homo sapiens, dose 0.5-12.5 µM
[19] = tested on: PC-3; test: Induction of apoptosis in human PC-3 cells assessed as necrotic cells at 0.5 uM by Annexin V-FITC staining based flow cytometry (reference value: 0.48%); type: functional
[20] = biological target: T1, Son of sevenless homolog 1 (Homo sapiens); test: Inhibition of SOS1 in human PC-3 cells assessed as downregulation of AKT phosphorylation at 0.5 uM incubated for 15 mins by Western blotting analysis; type: cell-based
[21] = tested on: SK-LU-1; test: Antiproliferative activity against human SK-LU-1 cells harboring KRAS G12D mutant assessed as inhibition of cell growth incubated for 72 hrs by MTT assay; type: functional, cell-based; conditions: SK-LU-1, 72 h

Chain of Epidermal growth factor receptor (P00533 whole entry): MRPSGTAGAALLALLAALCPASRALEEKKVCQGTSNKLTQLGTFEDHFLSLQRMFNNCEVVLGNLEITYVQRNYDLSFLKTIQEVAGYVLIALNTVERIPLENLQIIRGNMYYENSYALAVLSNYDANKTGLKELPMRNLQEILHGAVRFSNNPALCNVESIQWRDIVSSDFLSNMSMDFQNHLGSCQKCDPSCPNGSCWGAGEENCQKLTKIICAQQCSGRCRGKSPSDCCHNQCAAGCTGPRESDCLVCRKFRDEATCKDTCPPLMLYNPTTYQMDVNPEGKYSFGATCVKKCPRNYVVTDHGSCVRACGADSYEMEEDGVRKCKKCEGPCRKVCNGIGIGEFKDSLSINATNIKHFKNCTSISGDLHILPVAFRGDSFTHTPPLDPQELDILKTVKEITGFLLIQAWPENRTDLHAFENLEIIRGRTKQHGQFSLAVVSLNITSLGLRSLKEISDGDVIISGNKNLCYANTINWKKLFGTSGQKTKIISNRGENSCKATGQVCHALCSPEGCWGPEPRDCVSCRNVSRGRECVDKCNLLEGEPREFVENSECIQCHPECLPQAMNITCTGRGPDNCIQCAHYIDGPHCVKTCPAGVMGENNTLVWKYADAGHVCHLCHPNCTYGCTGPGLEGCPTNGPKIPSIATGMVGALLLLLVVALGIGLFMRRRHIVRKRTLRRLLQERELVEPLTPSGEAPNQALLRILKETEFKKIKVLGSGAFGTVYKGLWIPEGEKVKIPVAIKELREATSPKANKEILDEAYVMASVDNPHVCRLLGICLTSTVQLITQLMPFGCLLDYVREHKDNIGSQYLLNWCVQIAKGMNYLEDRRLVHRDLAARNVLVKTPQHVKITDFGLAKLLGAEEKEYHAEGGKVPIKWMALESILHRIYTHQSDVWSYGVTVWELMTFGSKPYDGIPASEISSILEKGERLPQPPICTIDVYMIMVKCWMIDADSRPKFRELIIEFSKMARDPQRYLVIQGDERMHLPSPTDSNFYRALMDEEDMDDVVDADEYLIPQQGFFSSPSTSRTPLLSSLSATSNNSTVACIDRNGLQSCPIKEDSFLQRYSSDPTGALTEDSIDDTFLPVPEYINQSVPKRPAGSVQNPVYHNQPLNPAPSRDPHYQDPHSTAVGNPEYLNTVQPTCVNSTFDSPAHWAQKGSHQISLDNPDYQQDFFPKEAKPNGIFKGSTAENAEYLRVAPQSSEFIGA

For `COc1cc2ncnc(N[C@H](C)c3cccc(F)c3)c2cc1OC1CCOCC1`, the inhibition [1] was “Active”, the IC50 [2] was 5.48 µM and the Activity [3] was “Non-Toxic”. For the same compound, the Activity [4] was “Toxic”, the Activity [5] was “Non-Toxic” and the Activity [6] was 79.45%. For the same compound, the Activity [7] was “Non-Toxic”, the viability at 12.5 µM [8] was 74.3% and the inhibition [9] was “Active”. For the same compound, the inhibition [10] was 97%, the Activity [11] was 0.15% and the Activity [12] was 21.5%. The Activity [13] was “Active”, the Activity [14] was “Dose-Dependent Effect” and the Activity [15] was “Toxic”. The Activity [16] was 12.65%, the inhibition [17] was 100% and the Activity [18] was “Active”. The Activity [19] was 0.6%, the inhibition [20] was “Active” and the IC50 [21] was 0.55 µM.
